The values that follow come from US8148431B2, “Osteogenesis promoter containing β-cryptoxanthin as the active ingredient” (Kemin Health, L.C., priority 2002, dated 2012).

Common to all, as to assay type: cell-based, Wistar male rats
The test system of assay [1] is diaphysis tissue of the femur. Description: Bone resorption (PTH or prostaglandin E2): bone calcium level in cultured diaphysis tissue. On the procedure:
(§1) The femurs were extracted from rats (Wistar male rats; 4 to 5 weeks old) (purchased from Japan SLC Co., Ltd. and fed with solid Oriental yeast (MF)) under anesthesia with ether under a germfree condition. The femurs were each washed with 0.25 M sucrose solution, and then divided into the diaphysis (cortical bone) and metaphysis (cancellous bone). The bone tissue pieces were cultured in a culture medium (Dulbecco's modified culture medium containing 5% of glucose; serum-free medium) containing. β-cryptoxanthin, etc. at […] in an incubator filled with 5% CO2-95% air for 48 hours. β-cryptoxanthin used was “β-cryptoxanthin” of Extrasynthase Co., cycloheximide used was “Cycloheximide” of Sigma Co. Ltd., β-carotene was “β-carotene” of Sigma ? , xanthine was “Xanthine” of Sigma Co, Ltd., parathormone was “Parathormone” of Sigma Co. Ltd. and prostaglandin E2 was “Prostaglandin E2” of Sigma Co. Ltd. In the control, only the culture medium was used without β-cryptoxanthin or the like.
(§2) Bone calcium level in the bone tissue was determined. After the culture in the incubator, the tissue pieces were washed with 0.25 M sucrose solution and dried and then the bone was weighed. Then concentrated nitric acid was added to the tissue pieces. After the incineration at 120° C. for 12 hours, the bone calcium level was determined with an atomic absorption photometer (“Perkin-Elmer 303” of Perkin-Elmer Co.).
(§3) The bone mineral dissolution-inhibiting effect of β-cryptoxanthin was examined. […] PTH also has a pathophysiologic role on the expression of osteoporosis caused by the aging. It is known that prostaglandin E2 also causes physiologic bone mineral dissolution. The diaphysis or metaphysis tissue of the femur was cultured in the presence of 10^−7 M PTH or 10^−5 M prostaglandin E2 for 48 hours and then calcium level in the bone tissue was determined. In another experiment, the culture was conducted in the same manner as that described above in the coexistence of them and β-cryptoxanthin (10^−8 M to 10^−6 M) and then calcium level in the bone tissue was determined. In each test group, the determination was conducted 6 to 8 times and the results were represented by the average value and the standard error. The significant difference was determined by Student's t-test. The result was compared with that of the control. When P value was not higher than 0.01 (*) as compared with the control or it is not higher than 0.1 (#) as compared with that of prostaglandin E2, the results were statistically significant.

Assay [2] concerns metaphysis tissue of the femur. In words: Bone resorption (PTH or prostaglandin E2): bone calcium level in cultured metaphysis tissue. On the procedure: as §1, §2, §3
Assay [3] concerns diaphysis tissue of the femur (cortical bone). In words: Bone calcium level in cultured femoral diaphysis tissue pieces. Particulars: diaphysis tissue; for Bone calcium level: mean ± SE; for Significant effect on increasing calcium level in the bone tissue (in words): Table 3 concentrations. On the procedure:
as §1, §2
(§4) The bone component-increasing effect of β-cryptoxanthin was examined. The diaphysis and metaphysis tissue of the femur was cultured in the above-described culture medium containing β-cryptoxanthin (10^−5 to 10^−5 M) for 48 hours. Calcium level in the bone tissue, alkaline phosphatase activity (enzyme for accelerating the bone calcification) and the amount of deoxyribonucleic acid (DNA; index of number of cells in the bone tissue) were determined by the same methods as in Example 1. In each test group, the determination vas conducted 6 to 8 times and the results were represented by the average value and the standard error. The significant difference was determined by Student's t-test. The result was compared with that of the control. When P value was not higher than 0.01 (**) or not higher than 0.05 (*), the results were statistically significant.

The test system of assay [4] is metaphysis tissue of the femur (cancellous bone). In words: Bone calcium level in cultured femoral metaphysis tissue pieces. Particulars: metaphysis tissue; for Bone calcium level: mean ± SE; for Significant effect on increasing calcium level in the bone tissue (in words): Table 3 concentrations. On the procedure:
as §1, §2
as §4, with “The diaphysis and metaphysis tissue of the femur was cultured in the above-described culture medium containing β-cryptoxanthin (10^−5 to 10^−5 M) for 48 hours.” left out

Assay [5] concerns diaphysis tissue of the femur (cortical bone). In words: Bone alkaline phosphatase activity in cultured femoral diaphysis tissue pieces. Particulars: Table 2 (protein synthesis inhibitor experiment), diaphysis tissue, 10^−6 M (each agent), mean ± SE, n=6. The method, then:
as §1
(§5) The expression level of alkaline phosphatase, which is the most important enzyme for the acceleration of the calcification of bones, was examined. The tissue pieces cultured in the incubator were washed in 0.25 M sucrose solution, then pulverized in 3 ml of 65 mM barbital buffer (pH 7-4) and treated with ultrasonic waves. The resultant liquid was centrifuged. The supernatant, as the enzyme solution, was determined by a method of Walter ad Schutt in Method of Enzymatic Analysis, Vol. 1-2, p. 856, Academic Press, New York, 1965). Namely, this method was carried out as follows: p-nitrophenylphosphoric acid was used as the substrate. 0.05 ml of the enzyme solution was added to 2 ml of diethanolamine buffer (pH 9.8). After the incubation at 37° C. for 30 minutes, 10 ml of 0.05 N NaOH was added to the mixture. The absorbance (405 nm) was determined with a spectrophotometer to determine bone alkaline phosphatase activity of a bone remedy or a compound known to be effective for the bones.
as §4

For assay [6], the system named is metaphysis tissue of the femur (cancellous bone). In words: Bone alkaline phosphatase activity in cultured femoral metaphysis tissue pieces. Particulars: Table 2 (protein synthesis inhibitor experiment), metaphysis tissue, 10^−6 M (each agent), mean ± SE, n=6. The method, then: as §1, §5, §4
For assay [7], the system named is diaphysis tissue of the femur (cortical bone). In words: Bone DNA level in cultured femoral diaphysis tissue pieces. Particulars: Table 2 (protein synthesis inhibitor experiment), diaphysis tissue, 10^−6 M (each agent), mean ± SE, n=6. On the procedure: as §1
(§6) DNA level was determined as an index of the number of cells in the bone tissue. After the culture in an incubator, the tissue pieces were washed with 0.25 M sucrose solution and then the wet weight of them was determined. They were pulverized in 4 ml of 0.1 N NaOH. After the osmosis at 4° C. for 24 hours, the liquid mixture was centrifuged. The supernatant was taken as the sample and determined by a method of Ceriotti et al. (J. Biol. Chem., 241; 34-77, 1951). Namely, 1 ml of concentrated hydrochloric acid and 1 ml of 0.04% indole solution were added to 2 ml of the sample and then the resultant mixture was heated to 100° C. in boiling water. After quenching followed by the extraction with 4 ml of chloroform, the chloroform layer was taken to determine bone DNA level with a spectrophotometer (490 nm).
as §4

Assay [8] concerns metaphysis tissue of the femur (cancellous bone). Description: Bone DNA level in cultured femoral metaphysis tissue pieces. Particulars: Table 2 (protein synthesis inhibitor experiment), metaphysis tissue, 10^−6 M (each agent), mean ± SE, n=6. On the procedure: as §1, §6, §4
The mark [9] stands for this setting: Comparative Example (Table 3), 10^−6 M, 48 h culture.
Setting [10] is: Comparative Example (Table 3), 10^−7 M, 48 h culture.
The mark [11] stands for this setting: Table 2 (protein synthesis inhibitor experiment), 10^−6 M (each agent), n=6.
The mark [12] stands for this setting: 10^−7 M PTH, 48 h culture, vs control.

Marks after values point to notes of the source that are not given here.

On to `CCCCC[C@H](O)/C=C/[C@H]1[C@H](O)CC(=O)[C@@H]1C/C=C\CCCC(=O)O` [Prostaglandin E2, reference compound], for which the “Effect of prostaglandin E2 on calcium level in the bone tissue (in words)” value in assay [1] (diaphysis tissue, prostaglandin E2 10^−5 M) was “significant reduction”; in assay [2] (metaphysis tissue, prostaglandin E2 10^−5 M) it was “significant reduction”. In addition, the Bone calcium level in assay [1] (diaphysis tissue, prostaglandin E2 10^−5 M alone, 48 h culture) is on record as 182.8 ± 4.06* mg/g dry weight; in assay [2] (metaphysis tissue, prostaglandin E2 10^−6 M alone, 48 h culture), 163.5 ± 1.47* mg/g dry weight.

Consider `CC1=C(/C=C/C(C)=C/C=C/C(C)=C/C=C/C=C(C)/C=C/C=C(C)/C=C/C2=C(C)CCCC2(C)C)C(C)(C)CCC1` [β-carotene, reference compound], for which the Bone calcium level in assay [3] (setting [9]) is given as 215.6 ± 2.78 mg/g dry weight; in assay [3] (setting [10]) it was 232.2 ± 6.66 mg/g dry weight; in assay [4] (setting [9]) it was 189.4 ± 8.06 mg/g dry weight; in assay [4] (setting [10]) it was 195.4 ± 10.10 mg/g dry weight. Besides, the “Significant effect on increasing calcium level in the bone tissue (in words)” value in assay [3] (48 h culture) and in assay [4] (48 h culture) was “could not be obtained” throughout.

`C[C@@H]1C[C@@H]([C@H](O)CC2CC(=O)NC(=O)C2)C(=O)[C@@H](C)C1` [Cycloheximide, reference compound]: the Bone calcium level in assay [3] (setting [11]) is listed as 204.0 ± 15.59 mg/g dry weight; in assay [4] (setting [11]), 156.4 ± 2.81 mg/g dry weight. Besides, the “Bone alkaline phosphatase activity” value in assay [5] was found to be 534.5 ± 64.2 nmol/min/mg protein; in assay [6] it was 948.8 ± 21.1 nmol/min/mg protein. The entries for the “Bone DNA level” value in assay [7] and in assay [8] were 1.299 ± 0.127 mg/g bone wet weight and 3.001 ± 0.454 mg/g bone wet weight, respectively.

Take `Oc1nc(O)c2[nH]cnc2n1` [Xanthine, 2,6-dihydroxypurine, reference compound]: the Bone calcium level in assay [3] (setting [9]) was 240.2 ± 8.46 mg/g dry weight; in assay [3] (setting [10]), 228.6 ± 7.08 mg/g dry weight; in assay [4] (setting [9]), 188.2 ± 3.34 mg/g dry weight; in assay [4] (setting [10]) it was 189.8 ± 3.30 mg/g dry weight. In addition, the “Significant effect on increasing calcium level in the bone tissue (in words)” value in assay [3] (48 h culture) and in assay [4] (48 h culture) was “could not be obtained” throughout.

B1: Parathyroid hormone: peptide hormone secreted from the accessory thyroid, causes bone mineral dissolution (bone resorption); “Parathormone” of Sigma (peptide, UniProt P01270 32-115, looked up)
Parathyroid hormone: SVSEIQLMHNLGKHLNSMERVEWLRKKLQDVHNFVALGAPLAPRDAGSQRPRKKEDNVLVESHEKSLGEADKADVNVLTKAKSQ
modifications: Parathyroid hormone
notes: peptide hormone secreted from the accessory thyroid, causes bone mineral dissolution (bone resorption); “Parathormone” of Sigma
Consider B1, for which the “Effect of PTH on calcium level in the diaphysis tissue (in words)” value in assay [1] (setting [12]) is recorded as “significantly reduced”. Further, the Bone calcium level in assay [1] (diaphysis tissue, parathyroid hormone 10^−7 M alone, 48 h culture) is listed as 180.0 ± 3.23* mg/g dry weight; in assay [2] (metaphysis tissue, parathyroid hormone 10^−7 M alone, 48 h culture), 167.0 ± 0.96* mg/g dry weight. Moreover, the “Effect of PTH on calcium level in the metaphysis tissue (in words)” value in assay [2] (setting [12]) was “significantly reduced”.
